Assay results as given in ChEMBL document CHEMBL4715849, “Recent Progress in the Discovery of Antifungal Agents Targeting the Cell Wall” (J Med Chem, 2020).
Values after ≈ are worked out from the molar mass of the structure shown.

Columns and labels:
[1] = test system: Candida albicans; test: Antifungal activity against Candida albicans A9540 infected in iv dosed ICR mouse assessed as protection against fungus-induced lethal infection dosed thrice at 48 hrs interval immediately following fungal challenge and measured on day 20 post infection by Litchfield -Wilcoxon method; assay type: functional; conditions: 480 h, time 20 day, read-out: PD50
[2] = test system: Aspergillus fumigatus; test: Antifungal activity against Aspergillus fumigatus IAM2034 infected in iv dosed ICR mouse assessed as protection against fungus-induced lethal infection dosed thrice at 48 hrs interval immediately following fungal challenge and measured on day 20 post infection by Litchfield -Wilcoxon method; assay type: functional; conditions: 480 h, time 20 day, read-out: PD50
[3] = test system: Candida albicans; test: Antifungal activity against Candida albicans infected in mouse assessed as protection against fungus-induced lethal infection; assay type: functional; conditions: read-out: PD50
[4] = Solubility in water at pH 7.2; assay type: physicochemical
[5] = test system: Candida albicans; test: Antifungal activity against Candida albicans A9540 incubated for 24 hrs by broth microdilution method; assay type: functional
[6] = test system: Candida albicans; test: Antifungal activity against Candida albicans IAM 888 incubated for 24 hrs by broth microdilution method; assay type: functional
[7] = test system: Candida albicans; test: Antifungal activity against Candida albicans ATCC 32354 incubated for 24 hrs by broth microdilution method; assay type: functional
[8] = test system: Candida albicans; test: Antifungal activity against Candida albicans 83-2-14 incubated for 24 hrs by broth microdilution method; assay type: functional
[9] = test system: Candida tropicalis; test: Antifungal activity against Candida tropicalis 85-5 incubated for 24 hrs by broth microdilution method; assay type: functional
[10] = test system: Candida tropicalis; test: Antifungal activity against Candida tropicalis IFO10241 incubated for 24 hrs by broth microdilution method; assay type: functional
[11] = Inhibition of Candida albicans IFO1060 1,3-beta-D-glucan synthase using UDP-[6-3H]-glucose as substrate incubated for 30 mins by radioactivity
[12] = test system: Candida albicans; test: Antifungal activity against Candida albicans ATCC 48130 incubated for 1 day by NCCLS M27-A2 microdilution method; assay type: functional; conditions: ATCC 48130, 24 h
[13] = test system: Candida albicans; test: Antifungal activity against Candida albicans CY3003 incubated for 1 day by NCCLS M27-A2 microdilution method; assay type: functional; conditions: CY3003, 24 h
[14] = test system: Candida albicans; test: Antifungal activity against Candida albicans CY1123 incubated for 1 day by NCCLS M27-A2 microdilution method; assay type: functional; conditions: CY1123, 24 h
[15] = test system: Candida albicans; test: Antifungal activity against Candida albicans CY1124 incubated for 1 day by NCCLS M27-A2 microdilution method; assay type: functional; conditions: CY1124, 24 h
[16] = test system: Aspergillus fumigatus; test: Antifungal activity against Aspergillus fumigatus CF1083 incubated for 1 day by NCCLS M27-A2 microdilution method; assay type: functional; conditions: CF1083, 24 h
[17] = test system: Aspergillus fumigatus; test: Antifungal activity against Aspergillus fumigatus CF1003 incubated for 1 day by NCCLS M27-A2 microdilution method; assay type: functional; conditions: CF1003, 24 h
[18] = test system: Aspergillus fumigatus; test: Antifungal activity against Aspergillus fumigatus CF924390 incubated for 1 day by NCCLS M27-A2 microdilution method; assay type: functional; conditions: CF924390, 24 h
[19] = test system: Candida albicans; test: Antifungal activity against Candida albicans ATCC2001 incubated for 2 day by NCCLS M27-A2 microdilution method; assay type: functional; conditions: ATCC2001, 48 h
[20] = test system: Candida albicans; test: Antifungal activity against Candida albicans IFO0005 incubated for 3 day by NCCLS M27-A2 microdilution method; assay type: functional; conditions: IFO0005, 72 h
[21] = Competitive inhibition of Candida albicans AMB-25 glucosamine synthetase using glutamine as substrate incubated for 30 mins by Lineweaver-Burk plot based Dixon plot analysis
[22] = test system: Candida albicans; test: Antifungal activity against Candida albicans AMB-25 incubated for 48 hrs by serial two-fold dilution method; assay type: functional
[23] = Inhibition of Candida albicans AMB-25 glucosamine-6-phosphate synthase using glutamine as substrate incubated for 30 mins
[24] = Inhibition of Candida albicans glucosamine-6-phosphate synthase by Elson-Morgan method
[25] = test system: Candida albicans; test: Antifungal activity against Candida albicans ATCC 10261 incubated for 24 hrs by serial dilution method; assay type: functional
[26] = test system: Candida albicans; test: Antifungal activity against Candida albicans ATCC 26278 incubated for 24 hrs by serial dilution method; assay type: functional
[27] = test system: Debaryomyces hansenii; test: Antifungal activity against Candida famata incubated for 24 hrs by serial dilution method; assay type: functional
[28] = test system: Vanrija humicola; test: Antifungal activity against Candida humicola incubated for 24 hrs by serial dilution method; assay type: functional
[29] = test system: Nakaseomyces glabratus; test: Antifungal activity against Candida glabrata incubated for 24 hrs by serial dilution method; assay type: functional
[30] = Inhibition of Mucor flavus IFO9560 chitin synthase incubated for 6 to 20 hrs by Lineweaver-Burk analysis
[31] = test system: Mucor racemosus; test: Antifungal activity against Mucor racemosus IF09255 by serial broth dilution method; assay type: functional
[32] = Antifungal activity against Mucor piriformis IF09416 by serial broth dilution method; assay type: functional
[33] = test system: Mucor mucedo; test: Antifungal activity against Mucor mucedo IF07684 by serial broth dilution method; assay type: functional
[34] = test system: Mucor mucedo; test: Antifungal activity against Mucor mucedo IF06750 by serial broth dilution method; assay type: functional
[35] = test system: Mucor mucedo; test: Antifungal activity against Mucor mucedo IF05776 by serial broth dilution method; assay type: functional
[36] = test system: Mucor hiemalis; test: Antifungal activity against Mucor hiemalis IFO9400 by serial broth dilution method; assay type: functional
[37] = test system: Mucor javanicus; test: Antifungal activity against Mucor javanicus IFO4569 by serial broth dilution method; assay type: functional
[38] = Antifungal activity against Mucor flavus IFO9560 by serial broth dilution method; assay type: functional
[39] = Inhibition of Candida albicans IFO1060 1,3-beta-D-glucan synthase
[40] = test system: Candida albicans; test: Antifungal activity against Candida albicans […] by NCCLS protocol based broth M27-A microdilution method; assay type: functional, organism-based
[41] = test system: Candida albicans; test: Antifungal activity against Candida albicans CY1002 infected in iv dosed ICR mouse administered as single dose measured on day 7; assay type: functional; conditions: 168 h, time 7 day
[42] = test system: Candida albicans; test: Antifungal activity against Candida albicans CMCC 76615 incubated for 24 hrs; assay type: functional
[43] = test system: Aspergillus fumigatus; test: Antifungal activity against Aspergillus fumigatus GIMCC 3.19 incubated for 24 hrs; assay type: functional
[44] = test system: Cryptococcus neoformans; test: Antifungal activity against Cryptococcus neoformans ATCC 32719 incubated for 24 hrs; assay type: functional
[45] = test system: Aspergillus flavus; test: Antifungal activity against Aspergillus flavus ATCC 16870 incubated for 24 hrs; assay type: functional

COc1cc(O)c2c(c1)C(=O)c1c(cc3c(c1O)-c1c(cc(C)c(C(=O)N[C@H](CO)C(=O)O)c1O)[C@H](O[C@@H]1O[C@H](C)[C@H](N(C)C)[C@H](O[C@@H]4OC[C@@H](O)[C@H](O)[C@H]4O)[C@H]1O)[C@H]3O)C2=O
ED50 [1]: 15 mg/kg | ED50 [2]: 23 mg/kg | ED50 [3]: 50 mg/kg | solubility [4]: > 20 mg/mL

CCC/C=C/C=C/C=C/C(=O)OC[C@H]1O[C@@H](O[C@H]2[C@H](OC(=O)/C=C/C=C/C[C@H](O)/C=C/C=C/C=C/CCC)[C@@H](O)[C@@]3(OCc4cc(O)cc(O)c43)O[C@@H]2CO)[C@H](O)[C@@H](O)[C@H]1O
MIC [5]: 0.1 µg/mL (≈ 0.117 µM) | MIC [6]: 0.1 µg/mL (≈ 0.117 µM) | MIC [7]: 0.1 µg/mL (≈ 0.117 µM) | MIC [8]: 0.1 µg/mL (≈ 0.117 µM) | MIC [9]: 0.1 µg/mL (≈ 0.117 µM) | MIC [10]: 0.1 µg/mL (≈ 0.117 µM)

O=C(Nc1c(F)cccc1F)OCCCN1CCN(c2nc3ccccc3s2)CC1
IC50 [11]: 0.16 µM | MIC [12]: 0.26 µg/mL (≈ 0.601 µM) | MIC [13]: 0.26 µg/mL (≈ 0.601 µM) | MIC [14]: 0.26 µg/mL (≈ 0.601 µM) | MIC [15]: 0.26 µg/mL (≈ 0.601 µM) | MIC [16]: 0.15 µg/mL (≈ 0.347 µM) | MIC [17]: 0.15 µg/mL (≈ 0.347 µM) | MIC [18]: 0.15 µg/mL (≈ 0.347 µM) | MIC [19]: 0.17 µg/mL (≈ 0.393 µM) | MIC [20]: 0.17 µg/mL (≈ 0.393 µM)

COC(=O)/C=C/C(=O)NC[C@H](N)C(=O)O
Ki [21]: 0.1 µM | MIC [22]: > 200 µg/mL | IC50 [23]: 4.03 µg/mL (≈ 18.6 µM)

COP(=O)(OC)OC[C@@H](O)[C@@H](O)[C@H](O)[C@@H](N)CO
IC50 [24]: 4750 µM | MIC [25]: 300 µg/mL (≈ 1040 µM) | MIC [26]: 300 µg/mL (≈ 1040 µM) | MIC [27]: 300 µg/mL (≈ 1040 µM) | MIC [28]: 300 µg/mL (≈ 1040 µM) | MIC [29]: 300 µg/mL (≈ 1040 µM)

C[C@@H]1C[C@H]2O[C@@H]2/C=C\C=C\C(=O)Cc2c(Cl)c(O)cc(O)c2C(=O)O1 [RADICICOL]
Ki [30]: 87 µM | MIC [31]: 0.39 µg/mL (≈ 1.07 µM) | MIC [32]: 0.39 µg/mL (≈ 1.07 µM) | MIC [33]: 0.39 µg/mL (≈ 1.07 µM) | MIC [34]: 0.39 µg/mL (≈ 1.07 µM) | MIC [35]: 0.39 µg/mL (≈ 1.07 µM) | MIC [36]: 0.39 µg/mL (≈ 1.07 µM) | MIC [37]: 0.39 µg/mL (≈ 1.07 µM) | MIC [38]: 0.39 µg/mL (≈ 1.07 µM)

CCCCCCCCCCCCC[C@H]1OC(=O)[C@H](CCCN)NC(=O)[C@@H]([C@@H](C)O)NC(=O)CNC(=O)[C@H]([C@H](O)CCN)NC(=O)[C@H]2[C@@H](O)CCN2C(=O)[C@H]([C@@H](C)O)NC(=O)[C@@H]2C[C@@H](O)CN2C(=O)[C@H](C(C)C)NC(=O)[C@H](Cc2ccc(O)cc2)NC(=O)[C@@H](C)NC(=O)[C@H]([C@@H](C)O)NC1=O
IC50 [39]: 0.006 µM | IC50 [40]: 0.01 µg/mL (≈ 0.00712 µM) | ED50 [41]: 0.04 mg/kg

O=C(Nc1c(O)c2ccccc2oc1=O)[C@H](O)[C@@H](O)C(=O)N1CCN(c2ccc(Cl)cc2)CC1
MIC [42]: 4 µg/mL (≈ 8.2 µM) | MIC [43]: 4 µg/mL (≈ 8.2 µM) | MIC [44]: 4 µg/mL (≈ 8.2 µM) | MIC [45]: 4 µg/mL (≈ 8.2 µM)
